Experimental data from US20030086987A1, “Salvianolic acid B” (priority 2001, published 2003).

What was measured:
[1] = test system: New Zealand White rabbits; assay: Intima/media area ratio in cholesterol-fed rabbits after femoral artery denudation; format: in vivo; details: 2% cholesterol diet, six weeks, probucol 1.5 g/day, salvianolic acid B 375 mg/day; for ratio of the intima area to the media area, thoracic aorta section: CT group 0.1; for ratio of the intima area to the media area, aortic arch section: CT group 0.22; for ratio of the intima area to the media area, abdominal aorta section: CT group 0.58
Protocol: New Zealand White rabbits were randomly divided into three groups. […] Another group was fed with the control diet containing 1.5 g/day probucol (P group), and the third group was fed with the control diet containing 375 mg/day salvianolic acid B (Sal B group). After being fed for three weeks, all rabbits underwent a femoral artery denudation. After the operation, the diet fed to each group was maintained for anther three weeks. […] Thin sections (5 μm thick) were stained with Mayer's hematoxylin-eosin solution. […] See, e.g., Gordon et al. (1992) Proc […] USA 89: 11312-11316. In the CT group, the ratio of the intima area to the media area of the aortic arch section was 0.22 (±0.04).

[2] = test system: Human aortic smooth muscle cells (HASMCs); assay: Rescue of oxLDL induced cell death, MTT assay; format: cell-based; details: then 40 μg/mL oxLDL for 24 hr, oxLDL alone 23.5%
Protocol: Human aortic smooth muscle cells (HASMCs, Cascade Biologics, Inc. Portland, Oreg.) were cultured in Medium 231 (Cascade Biologics, Inc.), supplemented with 5% smooth muscle growth serum (SMGS), 100 untis/mL penicillin, 100 μg/mL streptomycin, 1.25 μ/mL Fungizone (amphotericin B) at 37° C. in 5% CO2 saturated humidity atmosphere. The medium was changed every 4 days, and cells were detached by treatment with 0.05% trypsin, 0.02% EDTA solutions. […] Before each experiment, the medium was removed, and cells were washed and then cultured in serum-free medium containing the supplements indicated above but without SMGS. […] Then, 40 μg/mL oxLDL was added to the incubated medium for another 24 hr. The cytotoxic effect can be determined using the 3-(4,5-dimethylthiazol-2-yl)-2,5-diphenyltetrazolium bromide (MTT) assay method described in Boyd (In Principle of Practice of Oncology, […]., and Rosenberg, S. A. (Eds) Vol. 3, PPO Update, No. 10, 1989).

[3] = test system: caspase-3; assay: Inhibition of oxLDL induced caspase-3 activation, Western blot in HASMCs; format: cell-based, Human; details: 1 or 10 μg/mL for 24 hr, then 20 μg/mL oxLDL for 24 hr
Protocol: Human aortic smooth muscle cells (HASMCs, Cascade Biologics, Inc. Portland, Oreg.) were cultured in Medium 231 (Cascade Biologics, Inc.), supplemented with 5% smooth muscle growth serum (SMGS), 100 untis/mL penicillin, 100 μg/mL streptomycin, 1.25 μ/mL Fungizone (amphotericin B) at 37° C. in 5% CO2 saturated humidity atmosphere. The medium was changed every 4 days, and cells were detached by treatment with 0.05% trypsin, 0.02% EDTA solutions. […] Before each experiment, the medium was removed, and cells were washed and then cultured in serum-free medium containing the supplements indicated above but without SMGS. […] The sample solution was heated at 100° C. for 5 min, cooled down to room temperature, and subjected to 12% SDS-polyacrylamide gel electrophoresis. Then, proteins were transferred to PVDF membranes, blocked with 5% nonfat milk in Tris-buffered saline-Tween 20 (0.1%) at room temperature for 2 hr, and incubated overnight at 4° C. with […] anti-caspase-3 antibody (dilution 1:1000). The membranes were washed three times in Tris-buffered saline-Tween 20, and antibody reactions were detected using horseradish peroxidase-conjugated goat anti-rabbit IgG (0.2 μg/mL) and LumiGLO chemiluminescent detection reagents (Bradford (1976) Analytical Biochem 72: 248-254). Activated caspase-3 (17 kD) was detected in HASMCs after oxLDL treatment.

[4] = test system: IL-1β; assay: Inhibition of oxLDL induced IL-1β production in HASMCs, sandwich ELISA; format: cell-based, Human; details: 1, 2.5 and 10 μg/mL for 24 hr, then 20 μg/mL oxLDL for 24 hr
Protocol: (§1) Human aortic smooth muscle cells (HASMCs, Cascade Biologics, Inc. Portland, Oreg.) were cultured in Medium 231 (Cascade Biologics, Inc.), supplemented with 5% smooth muscle growth serum (SMGS), 100 untis/mL penicillin, 100 μg/mL streptomycin, 1.25 μ/mL Fungizone (amphotericin B) at 37° C. in 5% CO2 saturated humidity atmosphere. The medium was changed every 4 days, and cells were detached by treatment with 0.05% trypsin, 0.02% EDTA solutions. […] Before each experiment, the medium was removed, and cells were washed and then cultured in serum-free medium containing the supplements indicated above but without SMGS. […] IL-1 production was determined with a sandwich ELISA using anti-IL-1 antibodies (e.g., IL-1β and IL-1ra ELISA kits from R&D Systems and Endogen, Inc. respectively).

[5] = test system: IL-1ra; assay: Inhibition of oxLDL induced IL-1ra production in HASMCs, sandwich ELISA; format: cell-based, Human; details: 1, 2.5 and 10 μg/mL for 24 hr, then 20 μg/mL oxLDL for 24 hr
Protocol: as §1

[6] = test system: apoE (−) mice; assay: Atherosclerotic area in the apoE (−) mice; format: in vivo; details: 0.15% cholesterol diet with 0.25% salvianolic acid B or 2% SAGE, 113 days
Protocol: 25-week apoE (−) mice from Jackson Laboratory were randomly divided into three groups. Animals in the control group (CT group) were fed with a diet containing 0.15% cholesterol (w/w) (a control diet). Second group (SB group) was fed with the control diet containing 0.25% salvianolic acid B (w/w); and third group (SAGE group) was fed with the control diet containing 2% SAGE (w/w). The feeding period was 113 days. SAGE was prepared as follows:
Salvia miltiorrhiza extract was obtained from extracts of the sliced and ground roots of Salvia miltiorrhiza by using an aqueous ethanol solution (water: ethanol =4:1, v/v). The weight to volume ration of Salvia miltiorrhiza to extraction solvent was 1:10 (w/v).
Angelica sinensis extract was obtained from ethanolic extracts (1:10, w/v).
Glycyrrhizae radix (Glycyrrhiza uralensis) extract was obtained from ethanolic extracts (1:10, w/v).
The weight ratio of Salvia miltiorrhiza extract, Angelica sinensis extract, and Glycyrrhiza uralensis extract was 2:1:1, respectively, based on the dried weights of the raw herbs used.

CC(C)(Sc1cc(C(C)(C)C)c(O)c(C(C)(C)C)c1)Sc1cc(C(C)(C)C)c(O)c(C(C)(C)C)c1 [probucol, reference compound]
ratio of the intima area to the media area, thoracic aorta section [1]: about 0.03 | ratio of the intima area to the media area, aortic arch section [1]: about 0.1 | ratio of the intima area to the media area, abdominal aorta section [1]: about 0.33

O=C(/C=C/c1ccc(O)c2c1[C@H](C(=O)O[C@H](Cc1ccc(O)c(O)c1)C(=O)O)[C@@H](c1ccc(O)c(O)c1)O2)O[C@H](Cc1ccc(O)c(O)c1)C(=O)O [salvianolic acid B]
cell viability of the HASMCs ([2]; 1 μg/mL for 24 hr): 68.3% (±5.3%) | cell viability of the HASMCs ([2]; 1.25 μg/mL for 24 hr): 57.5% (±14.4%) | cell viability of the HASMCs ([2]; 10 μg/mL for 24 hr): 57.6% (±18.7%) | cell viability of the HASMCs ([2]; 20 μg/mL for 24 hr): 38.3% (±18.8%) | activated caspase-3 (17 kD) after oxLDL treatment [3]: no activated caspase-3 was observed | oxLDL induced IL-1β production [4]: inhibit | oxLDL induced IL-1ra production [5]: inhibit | ratio of the intima area to the media area, thoracic aorta section [1]: about 0.02 | ratio of the intima area to the media area, aortic arch section [1]: about 0.07 | ratio of the intima area to the media area, abdominal aorta section [1]: about 0.26 | Inhibition (%) of atherosclerosis compared with control group [6]: 83% | Intima area ([6]; mean ± S.D.): 1,563 ± 2,504 10^3 μm^2 | Media area ([6]; mean ± S.D.): 9,763 ± 2,239 10^3 μm^2 | Intima/Media (ratio) ([6]; mean ± S.D., CT 0.770): 0.128 ± 0.170
